Experimental data taken from patent US8357786B2, “Method for preparing Gynostemma pentaphyllum extract with increasing damulin A and damulin B contents, and pharmaceutical compositions of the same for treating metabolic disease” (TG Biotech Co., Ltd., priority 2009, dated 2013).

Tests used:
Format in all cases: cell-based
[1] = system: AMPK; assay: Phosphorylation of AMPK (Thr-172 of α subunit) in L6 myotube cells, western blot; details: 2 hours, damulin A 10, 30, 60 μg/ml, damulin B 1, 5, 10 μg/ml, compared to control group
Description: The activity of AMPK may be determined by determining whether or not the phosphorylation of a threonine amino acid residue at position 172 was increased.

[2] = system: ACC (acetyl-CoA carboxylase); assay: Phosphorylation of ACC (Ser-79) in L6 myotube cells, western blot; details: 2 hours, damulin A 10, 30, 60 μg/ml, damulin B 1, 5, 10 μg/ml, compared to control group
Description: ACC is an important enzyme for regulating lipid metabolism in liver and muscle tissues. This enzyme carboxylates acetyl-CoA to produce malonyl-CoA. Malonyl-CoA is the most important factor for regulating β-oxidation of fatty acid within mitochondria. When the concentration of malonyl-CoA increases, the activity of CPT-1 (carnitine palmitoyl-CoA transferase) in mitochondrial membrane is reduced, thereby inhibiting β-oxidation of fatty acid, and on the other hand, when the concentration of malonyl-CoA decreases, β-oxidation is increased, accelerating the reduction of body fat. ACC is a subordinate target protein in AMPK activity, and is phosphorylated by the activation of AMPK. […]
Accordingly, differentiated L6 myotube cells were treated with individually separated damulin A with different concentrations (10, 30, and 60 μg/ml), and treated with individually separated damulin B with different concentrations (1, 5, and 10 μg/ml), for 2 hours. The increased extent of the phosphorylation of a threonine residue at (Thr)-172 of AMPK α subunit, and a serine residue at Ser-79 of an ACC enzyme protein was analyzed through western blot analysis according to the method of Hwang, et al. (Biochem. Biophys. Res. Commun. 371, 289-293, 2008). […] Also, both damulin A and damulin B were determined to be active ingredients which phosphorylate and activate AMPK, and phosphorylate and inactivate ACC. […]

[3] = system: L6 myotube cells; assay: β-oxidation of fatty acid in L6 myotube cells
Procedure: When AMPK is activated, the activity of ACC is reduced, thereby reducing the concentration of malonyl-CoA within mitochondria. This accelerates the transport of fatty acid into mitochondria, and thereby increases β-oxidation. Thus, due to the reduction of body fat, an obesity inhibiting effect can be achieved. Cultured L6 myotube cells were treated with purely separated damulin A and damulin B, and the improving effect on β-oxidation of fatty acid was analyzed by the method of Hwang, et al. (Biochem. Biophys. Res. Commun. 377, 1253-1258).
As a result, it was observed that damulin A (30 μg/ml) and damulin B (5 μg/ml) increased β-oxidation of fatty acid 1.8 times and 2.6 times (see FIG. 5).

[4] = system: L6 myotube cells; assay: 2-DG (glucose) absorption into L6 myotube cells
Description: It is well known that the activation of AMPK also increases the glucose absorption into cells, and thus causes a blood glucose level reducing effect (Hardie, et al., FEBS Lett. 546, 113-120, 2003; Carling, et al., Trends. Biochem. Sci. 29, 18-24, 2004; Kahn, et al., Cell Metab. 1, 15-25, 2005; Cool, et al., Cell Metab. 3. 403-416, 2006; Lee et al., Diabetes, 55, 2256-2264, 2006; Hwang et al., Biochem. Biophys. Res. Commun. 371, 289-293, 2008). Accordingly, the treatment of damulin A and damulin B on L6 myotube cells was carried out to determine the influence on the glucose absorption into cells.
To cultured L6 myotube cells, high concentration glucose was added together with 2-DG (2-deoxy-[3H]D-glucose) (a radioactive isotope that is not decomposed within a cell) according to the method of Hwang et al. (Biochem. Biophys. Res. Commun. 377, 1253-1258), and then the accelerated extent of 2-DG absorption into cells by damulin A (30 μg/ml) and damulin B (5 μg/ml) was analyzed. As a result, in the damulin A-treated cells, the capability of absorbing glucose was increased by 42% on the average, and in the damulin B-treated cells, the capability was increased by about 79% (see FIG. 6). Therefore, based on the result, both damulin A and damulin B are determined to have a high anti-diabetes effect by decreasing blood glucose level.

CC(C)=CC/C=C(/C)[C@H]1CC[C@]2(C)C1[C@H](O)CC1[C@@]3(C)C[C@@H](O)[C@H](OC4OC(CO)[C@@H](O)[C@H](O)[C@@H]4OC4OC(CO)[C@@H](O)[C@H](O)[C@@H]4O)C(C)(C)C3CC[C@]12C (stereo partly drawn) [damulin A, 2α,3β,12β-trihydroxydammar-20(22)-E,24-diene-3-O-[β-D-glucopyranosyl-(1→)-β-D-glucopyranoside]]
phosphorylation of threonine residue (Thr)-172 of AMPK α subunit [1]: concentration-dependently increased the phosphorylation
phosphorylation of serine residue Ser-79 of ACC [2]: concentration-dependently increased the phosphorylation
increase of β-oxidation of fatty acid ([3]; 30 μg/ml): 1.8 times
increase of capability of absorbing glucose (2-DG absorption into cells) ([4]; 30 μg/ml): 42%

C=C(CCC=C(C)C)[C@H]1CC[C@]2(C)C1[C@H](O)CC1[C@@]3(C)C[C@@H](O)[C@H](OC4OC(CO)[C@@H](O)[C@H](O)[C@@H]4OC4OC(CO)[C@@H](O)[C@H](O)[C@@H]4O)C(C)(C)C3CC[C@]12C (stereo partly drawn) [damulin B, 2α,3β,12β-trihydroxydammara-20,24-diene-3-O-[β-D-glucopyranosyl-(1→)-β-D-glucopyranoside]]
phosphorylation of threonine residue (Thr)-172 of AMPK α subunit [1]: concentration-dependently increased the phosphorylation
phosphorylation of serine residue Ser-79 of ACC [2]: concentration-dependently increased the phosphorylation
increase of β-oxidation of fatty acid ([3]; 5 μg/ml): 2.6 times
increase of capability of absorbing glucose (2-DG absorption into cells) ([4]; 5 μg/ml): about 79%
